The record followed here is ChEMBL document CHEMBL4420073, “Small molecule inhibitors of MUC1 and methods of identifying the same” (2015).

By inhibition is commonly meant the relative decrease from the control value, in per cent.

Assay [1] concerns the target Mucin-1 (Homo sapiens) (UniProt P15941). The assay can be described thus: Inhibition of soluble unbound MUC1-CD dimerization (unknown origin) by immunoblot analysis. The note with it: concentration not given here. In general terms: A western blot detects proteins with antibodies after separation by electrophoresis.
Assay [2] shares this target. The assay is described as follows: Inhibition of MUC1-CD dimerization (unknown origin) expressed in HEK293 cells assessed as disruption of interaction between Flag-MUC1-CD and GFP-MUC1-CD by coimmunoprecipitation assay. In kind it is cell-based.
Assay [3] has the same target. The assay is described as follows: Inhibition of MUC1-CD dimerization in human MCF10A cells assessed as reduction in MUC1-C levels at 50 to 100 uM incubated for 3 days by immunoblot analysis. It counts as cell-based.
In assay [4] the test system is MCF-10A. The assay is described as follows: Growth inhibition of immortalized human MCF10A cells assessed as reduction in cell number up to 100 uM incubated for 3 days by MTS assay. In kind it is functional, cell-based. (Tetrazolium assays rely on reduction of a dye to a coloured formazan, in cell work by metabolically active cells.)
Assay [5] concerns MCF-10A. The assay can be described thus: Induction of apoptosis in immortalized human MCF10A cells assessed as caspase-9 cleavage at 75 uM incubated for 3 days by immunoblot analysis. In kind it is functional, cell-based.
Assay [6] has as its system MCF-10A. The assay is described as follows: Induction of cell membrane integrity loss in immortalized human MCF10A cells at 75 uM incubated for 3 days by propidium iodide staining based flow cytometry. It counts as functional.
The subject of assay [7] is MCF7. The assay is described as follows: Reduction of MUC1 mRNA levels in human MCF7 cells at 75 uM incubated for 3 days by qRT-PCR analysis. In kind it is functional, cell-based. (Quantitative PCR measures a nucleic acid by following its amplification.)
Assay [8] deals with Mucin-1 (Homo sapiens) (UniProt P15941). The assay is described as follows: Inhibition of MUC1 nuclear import in human MCF7 cells assessed as decrease in nuclear MUC1-C levels at 75 uM incubated for 3 days by immunoblot analysis. It counts as cell-based.
Chain of Mucin-1 (Homo sapiens) (P15941 24-1097 limits assumed): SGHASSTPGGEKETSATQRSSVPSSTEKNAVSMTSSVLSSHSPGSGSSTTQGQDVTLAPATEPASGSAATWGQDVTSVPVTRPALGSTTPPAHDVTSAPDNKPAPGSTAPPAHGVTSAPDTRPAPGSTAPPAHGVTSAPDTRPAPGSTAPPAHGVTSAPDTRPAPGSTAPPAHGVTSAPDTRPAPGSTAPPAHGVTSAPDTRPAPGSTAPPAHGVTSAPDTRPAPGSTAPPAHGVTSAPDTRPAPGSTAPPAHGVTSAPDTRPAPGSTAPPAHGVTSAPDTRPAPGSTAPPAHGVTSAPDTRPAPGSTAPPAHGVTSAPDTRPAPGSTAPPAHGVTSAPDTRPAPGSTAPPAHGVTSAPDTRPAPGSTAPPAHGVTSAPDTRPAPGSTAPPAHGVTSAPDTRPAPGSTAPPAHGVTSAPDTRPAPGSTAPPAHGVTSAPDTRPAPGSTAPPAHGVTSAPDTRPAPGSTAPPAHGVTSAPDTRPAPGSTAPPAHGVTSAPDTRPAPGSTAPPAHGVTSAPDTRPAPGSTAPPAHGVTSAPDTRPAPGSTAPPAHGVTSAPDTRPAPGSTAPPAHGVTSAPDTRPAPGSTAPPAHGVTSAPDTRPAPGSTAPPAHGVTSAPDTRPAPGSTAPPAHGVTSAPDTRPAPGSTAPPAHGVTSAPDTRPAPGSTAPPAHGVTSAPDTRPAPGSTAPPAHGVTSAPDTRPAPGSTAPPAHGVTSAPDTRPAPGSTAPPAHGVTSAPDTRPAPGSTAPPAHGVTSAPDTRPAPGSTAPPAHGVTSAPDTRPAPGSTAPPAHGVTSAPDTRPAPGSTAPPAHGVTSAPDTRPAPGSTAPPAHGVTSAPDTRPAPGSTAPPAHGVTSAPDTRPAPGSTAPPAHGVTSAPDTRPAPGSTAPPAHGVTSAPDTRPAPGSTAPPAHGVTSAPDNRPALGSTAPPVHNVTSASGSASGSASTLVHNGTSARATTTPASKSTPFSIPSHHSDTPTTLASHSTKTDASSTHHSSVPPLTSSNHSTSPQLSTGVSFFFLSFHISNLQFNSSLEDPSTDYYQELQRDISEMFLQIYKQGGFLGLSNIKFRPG
Chain of Mucin-1 (Homo sapiens) (P15941 1098-1255 limits assumed): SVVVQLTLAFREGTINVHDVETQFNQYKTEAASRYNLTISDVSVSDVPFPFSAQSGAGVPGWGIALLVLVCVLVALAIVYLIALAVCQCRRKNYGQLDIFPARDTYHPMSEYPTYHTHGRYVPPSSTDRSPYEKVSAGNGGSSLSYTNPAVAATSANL
Assay [9] shares this target. The assay can be described thus: Inhibition of MUC1 in human MCF7 cells assessed as decrease in MUC1 protein level in whole cell lysates at 75 uM incubated for 3 days by immunoblot analysis. The note with it: Lysate. It counts as subcellular.
Assay [10] concerns MCF7. The assay is described as follows: Growth inhibition in human MCF7 cells assessed as reduction in cell number at 75 uM incubated for 3 days in presence of MUC1 siRNA by MTS assay. It counts as functional, cell-based.
Assay [11] deals with MCF7. The assay is described as follows: Induction of apoptosis in human MCF7 cells assessed as caspase-9 cleavage at 75 uM incubated for 3 days by immunoblot analysis. In kind it is functional, cell-based.
The test system of assay [12] is MCF7. The assay can be described thus: Induction of cell membrane integrity loss in human MCF7 cells assessed as PI uptake level at 75 uM incubated for 3 days by propidium iodide staining based flow cytometry (reference value: 22%). In kind it is functional.
Assay [13] concerns MCF-10A. The assay can be described thus: Induction of cell membrane integrity loss in immortalized human MCF10A cells assessed as PI uptake level at 50 uM incubated for 3 days by propidium iodide staining based flow cytometry (reference value: 23%). It counts as functional.
For assay [14], the system named is MCF-10A. The assay is described as follows: Induction of cell membrane integrity loss in immortalized human MCF10A cells assessed as PI uptake level at 75 uM incubated for 3 days by propidium iodide staining based flow cytometry (reference value: 23%). In kind it is functional.
Assay [15] deals with MCF-10A. The assay is described as follows: Induction of cell membrane integrity loss in immortalized human MCF10A cells assessed as PI uptake level at 100 uM incubated for 3 days by propidium iodide staining based flow cytometry (reference value: 23%). It counts as functional.
Assay [16] has as its system MCF7. The assay can be described thus: Inhibition of colony formation in human MCF7 cells assessed as decrease in colonies at 25 uM incubated for 2 weeks by crystal violet staining based assay. In kind it is functional, cell-based.
The test system of assay [17] is MCF7. The assay is described as follows: Inhibition of colony formation in human MCF7 cells assessed as decrease in colonies at 50 to 75 uM incubated for 2 weeks by crystal violet staining based assay. It counts as functional.
Assay [18] concerns the target Mucin-1 (Homo sapiens) (UniProt P15941). The assay is described as follows: Inhibition of MUC1 in human BT474 cells assessed as reduction in MUC1-C expression at 25 to 75 uM incubated for 3 days by immunoblot analysis. It counts as cell-based.
Assay [19] deals with BT-474. The assay is described as follows: Growth inhibition of human BT474 cells assessed as reduction in cell number up to 150 uM incubated for 3 days by MTS assay. It counts as functional, cell-based.
The test system of the next assay is HCC1937. The assay is described as follows: Growth inhibition of human HCC1937 cells assessed as reduction in cell number up to 150 uM incubated for 3 days by MTS assay. In kind it is functional, cell-based.
Assay [20] deals with BT-474. The assay is described as follows: Inhibition of colony formation in human BT474 cells assessed as decrease in colonies at 25 to 75 uM incubated for 2 weeks by crystal violet staining based assay. It counts as functional, cell-based.

Calls of active or inactive are those of the source. The calls are words filed in the database; no cut-off is given here.

With `O=c1cc(-c2ccc(O)cc2)oc2cc(O)cc(O)c12` [APIGENIN], the inhibition on Mucin-1 (Homo sapiens) [1] is 100%. Besides, the inhibition result on Mucin-1 (Homo sapiens) [2], on Mucin-1 (Homo sapiens) [3], at Mucin-1 (Homo sapiens) [8], on Mucin-1 (Homo sapiens) [9], in the assay on MCF7 [16] and on Mucin-1 (Homo sapiens) [18] was “Active” in each case. Also, in the assay with BT-474 [20], the inhibition result was “Active”. Besides, the “growth inhibition (GI)” value in the assay with MCF-10A [4] and in the assay with BT-474 [19] was “Active” throughout. Besides, the result with MCF-10A [5], in the assay on MCF-10A [6], with MCF7 [7] and in the assay with MCF7 [11] was Active. In addition, the “growth inhibition (GI)” value with MCF7 [10] and in the assay on HCC1937 was “inactive” throughout. In addition, the Activity in the assay with MCF7 [12] stood at 64%; in the assay on MCF-10A [13] it was 81%; with MCF-10A [14], 98%; with MCF-10A [15], 96%. Further, the “inhibition (INH)” value in the assay on MCF7 [17] worked out at 100%.
